For orientation: IC50 means the concentration that gives 50% inhibition. Broadly, the Ki is a measure of affinity in units of concentration, obtained from inhibition or displacement.

Test [1] deals with T1, human α9α10-nAChR (Homo sapiens, UniProt Q9GZZ6+Q9UGM1).
T1 construct: expressed in transfected cells; host or cells: Xenopus laevis oocytes (cRNA injection, α9:α10 9:1)
Put plainly: Two-electrode voltage clamp, antagonism of currents activated by 1 mM ACh, test compound coapplied, X. laevis oocytes (α9:α10 cRNA 9:1). The test is classed as cell-based. The conditions noted are these: coapplied with 1 mM ACh, up to 100 μM; 95% confidence interval in parentheses. In general terms: In two-electrode clamp one electrode senses voltage and the other passes current.

Another test has as its target T2, human α3β4-nAChR subtype (Homo sapiens, UniProt P30926+P32297).
T2 construct: expressed in transfected cells
Put plainly: Competition binding with [3H]epibatidine, membranes of SH-EP1 cells stably transfected with α3 and β4. Particulars: human α3β4 expressed in SH-EP1 cells; confidence interval in parentheses; read-out: α3β4-nAChR [3H]-Epi Ki.

In test [2] the target is T3, human α7-nAChR (Homo sapiens, UniProt P36544). Put plainly: Two-electrode voltage clamp, compound applied alone at 100 μM: intrinsic activity, rebound current, residual ACh response. The class given is cell-based. Details: expressed in transfected cells; host or cells: SH-SY5Y neuroblastoma cells (transient). The conditions noted are these: 100 μM pulse, vs 1 mM ACh, range over the named compounds.

Test [3] deals with T3, human α7-nAChR. In words: Two-electrode voltage clamp, antagonism of currents activated by 1 mM ACh, test compound coapplied, X. laevis oocytes. The class given is cell-based. The conditions noted are these: coapplied with 1 mM ACh, up to 100 μM, 95% confidence interval in parentheses, NA = not inhibited even at 100 μM.
The target of test [4] is T1, human α9α10-nAChR. Put plainly: Two-electrode voltage clamp, compound applied alone at 100 μM: intrinsic activity, rebound current, residual ACh response. The class given is cell-based.
[5] abbreviates: 100 μM pulse, alone, vs 1 mM ACh, range over the named compounds.

Where two headings read alike, the source gives them in different places.

T3 sequence (P36544 23-502): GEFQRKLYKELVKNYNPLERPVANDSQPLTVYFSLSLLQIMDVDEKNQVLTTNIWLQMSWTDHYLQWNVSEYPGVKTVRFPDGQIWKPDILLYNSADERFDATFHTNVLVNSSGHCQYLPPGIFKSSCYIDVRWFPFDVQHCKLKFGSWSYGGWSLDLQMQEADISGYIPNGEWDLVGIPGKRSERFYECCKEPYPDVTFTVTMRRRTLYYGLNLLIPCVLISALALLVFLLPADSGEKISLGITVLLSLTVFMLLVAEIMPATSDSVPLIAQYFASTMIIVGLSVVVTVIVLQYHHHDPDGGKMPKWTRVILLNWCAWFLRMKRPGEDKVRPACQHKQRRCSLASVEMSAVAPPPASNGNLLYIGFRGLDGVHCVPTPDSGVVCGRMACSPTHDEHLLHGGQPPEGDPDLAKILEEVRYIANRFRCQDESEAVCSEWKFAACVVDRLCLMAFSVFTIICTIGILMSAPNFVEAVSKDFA
T1 sequence (Q9UGM1 26-479 limits assumed): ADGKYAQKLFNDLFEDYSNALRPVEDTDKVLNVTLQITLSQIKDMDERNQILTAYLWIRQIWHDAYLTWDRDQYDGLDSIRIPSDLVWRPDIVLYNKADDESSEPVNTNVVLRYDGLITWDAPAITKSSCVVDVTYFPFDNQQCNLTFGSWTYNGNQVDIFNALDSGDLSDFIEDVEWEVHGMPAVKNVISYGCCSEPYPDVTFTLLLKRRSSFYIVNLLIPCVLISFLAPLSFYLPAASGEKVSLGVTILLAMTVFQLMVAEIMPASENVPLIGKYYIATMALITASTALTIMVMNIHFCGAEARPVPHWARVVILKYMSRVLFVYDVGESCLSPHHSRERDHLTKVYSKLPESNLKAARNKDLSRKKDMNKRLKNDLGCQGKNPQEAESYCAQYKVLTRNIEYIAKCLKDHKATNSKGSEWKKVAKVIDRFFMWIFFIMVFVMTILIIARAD
T1 sequence (Q9GZZ6 25-450): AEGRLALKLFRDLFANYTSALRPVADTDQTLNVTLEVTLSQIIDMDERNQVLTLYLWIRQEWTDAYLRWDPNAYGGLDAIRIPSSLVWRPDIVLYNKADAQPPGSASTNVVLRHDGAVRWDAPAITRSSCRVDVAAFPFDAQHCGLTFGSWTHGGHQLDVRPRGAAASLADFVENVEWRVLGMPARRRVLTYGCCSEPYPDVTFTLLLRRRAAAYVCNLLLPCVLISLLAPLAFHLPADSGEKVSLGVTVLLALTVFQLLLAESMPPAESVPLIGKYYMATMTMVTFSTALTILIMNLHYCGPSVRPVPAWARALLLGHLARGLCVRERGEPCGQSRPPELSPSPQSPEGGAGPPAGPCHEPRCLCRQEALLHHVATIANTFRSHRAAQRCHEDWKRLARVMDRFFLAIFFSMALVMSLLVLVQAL
T2 sequence (P32297 32-505): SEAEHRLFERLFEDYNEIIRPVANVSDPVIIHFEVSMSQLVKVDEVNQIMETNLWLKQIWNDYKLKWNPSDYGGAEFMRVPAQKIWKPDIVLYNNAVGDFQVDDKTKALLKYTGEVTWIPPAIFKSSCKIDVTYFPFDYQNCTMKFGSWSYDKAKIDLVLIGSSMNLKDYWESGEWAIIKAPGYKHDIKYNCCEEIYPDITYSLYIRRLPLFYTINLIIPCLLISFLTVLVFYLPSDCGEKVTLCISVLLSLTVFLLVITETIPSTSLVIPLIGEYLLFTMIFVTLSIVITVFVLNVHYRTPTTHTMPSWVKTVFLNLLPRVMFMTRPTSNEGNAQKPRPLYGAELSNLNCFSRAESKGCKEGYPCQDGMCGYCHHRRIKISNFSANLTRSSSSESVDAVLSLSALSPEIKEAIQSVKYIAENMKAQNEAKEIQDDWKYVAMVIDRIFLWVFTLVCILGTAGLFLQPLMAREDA
T2 sequence (P30926 22-498): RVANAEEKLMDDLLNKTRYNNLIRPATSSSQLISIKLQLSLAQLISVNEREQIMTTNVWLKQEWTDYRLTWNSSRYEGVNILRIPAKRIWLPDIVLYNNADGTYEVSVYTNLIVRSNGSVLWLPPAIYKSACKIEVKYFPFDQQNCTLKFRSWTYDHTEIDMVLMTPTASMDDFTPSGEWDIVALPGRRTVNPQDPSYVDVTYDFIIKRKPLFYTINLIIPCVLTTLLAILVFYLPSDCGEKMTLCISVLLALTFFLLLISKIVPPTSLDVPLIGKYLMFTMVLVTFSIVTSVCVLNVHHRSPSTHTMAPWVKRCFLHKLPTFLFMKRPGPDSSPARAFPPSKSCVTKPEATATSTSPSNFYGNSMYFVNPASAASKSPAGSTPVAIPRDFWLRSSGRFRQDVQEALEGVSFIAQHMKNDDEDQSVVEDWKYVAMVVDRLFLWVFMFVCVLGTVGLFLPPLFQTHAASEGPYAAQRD

For `CC[N+](CC)(CC)CCOc1ccc(-c2nc3ccccc3o2)cc1.[I-]` [Compound 28, 2-(4-(Benzo[d]oxazol-2-yl)phenoxy)-N,N,N-triethylethan-1-aminium Iodide], the results for the IC50 at human α9α10-nAChR [1], on human α7-nAChR [3] (read-out: α7 IC50 (AUC)) and on human α7-nAChR [3] (read-out: α7 IC50 (peak current)) were 72400 nM, 2250 nM and 1780 nM, respectively. The Ki at human α3β4-nAChR subtype was determined as 653 nM. The “partial agonism at α7-nAChR, efficacy compared to ACh control (peak current)” value on human α7-nAChR [2] is recorded as 15–50%. Also, the “partial agonism of α9α10-nAChRs, efficacy (AUC)” value at human α9α10-nAChR [4] (setting [5]) is on record as 0.2–3 % of ACh control. In addition, on human α9α10-nAChR [4] (setting [5]), the “partial agonism of α9α10-nAChRs, efficacy (peak current)” value is listed as 5–55 % of ACh control. On human α9α10-nAChR [4] (1 min after test compound, Figure 4), the “recovery of rebound current at α9α10-nAChR (in words)” value is reported as “almost complete recovery”. Besides, on human α9α10-nAChR [4] (final ACh control 1 min after test compound, Figure 4), the “residual ACh-induced current at α9α10-nAChR (in words)” value is on record as “highest residual ACh-induced currents”.
